1 compound from US11529350B2, “Tyrosine kinase non-receptor 1 (TNK1) inhibitors and uses thereof” (Sumitomo Pharma Oncology, Inc., priority 2019, dated 2022) can be followed below.

The structures appear in SMILES notation.

One series deals with L540 xenografts. The experiment in a line: In vivo efficacy study in subcutaneous L540 Hodgkin's lymphoma CDX model. The conditions noted are these: for tumor growth inhibition: oral gavage daily for 21 days. Here is the method:
An efficacy study was performed using Example No. 13 in a L540 CDX mouse model. Animals were NOD-SCID (#394) female mice 6-8 weeks of age from Charles River Laboratories (CRL). Example No. 13 was formulated weekly using Tween 80:Ethanol:PEG400:Water (2:10:30:58 v/v) as a vehicle. There were four treatment groups (n=10, 40 animals in total): a vehicle/control group, a group treated with 10 mg/kg Example No. 13, a group treated with 25 mg/kg Example No. 13 and a group treated with 50 mg/kg Example No. 13. When the average tumor volume reached 80-120 mm^3, animals were randomized and dosed daily for 21 days via oral gavage, 10 ml/kg dose volume. […] No tissues were collected. IDEXX pathogen test was performed prior to the cell culture; Corynebacterium bovis, Corynebacterium sp. (HAC2), EBV, HCMV, Hepatitis B, Hepatitis C, HIV1, HIV2, HPV16, HPV18, HTLV1, HTLV2, LDEV, and Mycoplasma sp. were tested, and all results were negative. Tumor volume measurements are provided as mean absolute tumor volume +/−SEM.

In series [1] the test system is TNK1 and STAT5 phosphorylation in L540 tumor tissue. The series is described as follows: In vivo single dose PD study, L540 xenograft, Western blot. Also on record: species or system mouse. The conditions noted are these: L540 tumor samples, 50 mg/kg. As for the experimental part: The objective of this study was to assess in vivo pharmacodynamic activity of Example No. 13 in a subcutaneous xenograft model of Hodgkin's lymphoma in female NOD SCID mice, aged 6-8 weeks. There were 4 groups (and a total of 84 mice): Example No. 13 at 50 mg/kg, 25 mg/kg, or 10 mg/kg (n=27 mice for each dose), and vehicle (n=3 mice). When the average tumor volume reached 300 mm^3, animals were randomized and dosed once p.o. at a 10 mL/kg dose volume. Blood and tumors were collected at nine different time points.
Example No. 13 was formulated in Tween 80 (0.2 mL), ethanol (1 mL), PEG400 (3 mL), and water (5.8 mL).
In this study, protein expression was analyzed by Western blotting method. Tissue samples were acquired as part of a single dose PK/PD study. Equal amounts of tumor were placed into a bead tube, lysis buffer (RIPA buffer (Sigma No. 0278), Halt CocktaiL (ThermoFisher No. 78440), EDTA (ThermoFisher No. 1861274), PhosSTOP (Sigma No. 04906845001), cOmplete (Sigma No. 11697498001) and Inhibitor Cocktail 3 (Sigma No. P0044-1ML)) was added, and samples were homogenized using bead homogenizer (2×20 s at 4.5 m/s (Fisherbrand Bead Mill 24 Homogenizer, Fisher Scientific)). […]
Protein concentration was determined using BCA kit (Invitrogen No. 23225). Equal amounts of protein were pooled from each treatment group, and concentration was measured again in the pooled samples. […]

The test system of a further series is A549 cells. The experiment in a line: Combination with bortezomib, A549 cell confluency (Incucyte). The class given is cell-based. The conditions noted are these: Example No. 13 10 nM + Bortezomib 1 nM, over 200 hours. Here is the method: A549 cells were seeded in log phase (e.g., at 40-60% confluency) in a well plate. Drug treatments were: no drug treatment, DMSO, bortezomib at 50 nM, 10 nM, 5 nM, 2 nM or 1 nM, Example No. 13 at 10 nM, and bortezomib 50 nM, 10 nM, 5 nM, 2 nM or 1 nM combined with Example No. 13 at 10 nM. The DMSO concentrations were kept constant (including DMSO control) to control for any confounding DMSO toxicity.
Drug addition protocol: On day 1, cells were seeded at 60,000 cells/well, and incubated for 24 hours to allow adherence. On day 2, media was aspirated and replaced with 500 μl of the drug media preparations described below in correlating wells. The plates were placed in Incucyte for 7-14 days, and cell confluency was measured every 2 hours. […]

Take `COc1cc(N2CCN(C)CC2)c(Cl)cc1Nc1ncc(Cl)c(Nc2cccnc2N2CCCC2=O)n1` [Example No. 13, 1-(3-((5-chloro-2-((5-chloro-2-methoxy-4-(4-methylpiperazin-1-yl)phenyl)amino)pyrimidin-4-yl)amino)pyridin-2-yl)pyrrolidin-2-one]: the tumor growth inhibition in the series with L540 xenografts (10 mg/kg, at Day 21) was determined as 35.17%; in the series with L540 xenografts (25 mg/kg, at Day 31), 74.20%; with L540 xenografts (50 mg/kg, at Day 31), 86.5%. Moreover, in the series on L540 xenografts (50 mg/kg), the body weight loss result was “moderate”. Moreover, the “animals found dead on Day 7, possibly due to drug toxicity” value in the series with L540 xenografts (50 mg/kg group (n=10)) was “Two”. For the same compound, the “continued tumor growth inhibition post-dosing” value with L540 xenografts (25 and 50 mg/kg, dosing stopped on day 21) is reported as “up to 10 days”. Further, the “earliest time at which inhibition of STAT5 phosphorylation was observed after dosing” value in series [1] lay in the range of 15 to 30 min. The “cell growth inhibition, combination” value with A549 cells was “approximately 50%”.
